{"source": "patent US20140335186A1", "about": "“METHODS AND COMPOSITIONS FOR ENHANCING CD4+ REGULATORY T CELLS” (Selecta Biosciences, Inc., priority 2013, published 2014)", "system": "CD4+ OTII cells (CD25+Fox3p+ regulatory T cell phenotype)", "assay": "Induction of CD4+ regulatory T cells: CD4+ OTII cells transferred into SJL mice, flow cytometry of popliteal lymph nodes", "format": "in vivo, mouse", "settings": "s.c. hind limbs on days 1 and 5, popliteal lymph nodes on day 10", "description": "In order to monitor the determine the effect of immunosuppressant attached to synthetic nanocarriers on the development of CD4+ regulatory T cells, CD4+ T cells were purified from the transgenic mouse strain OTII using negative selection by magnetic-activated cell sorting (MACS). OTII mice express a T cell receptor specific for the chicken ovalbumin peptide OVA323-339. Following isolation, 4×10^6 CD4+ OTII cells were transferred into SJL mice congenically expressing the pan-leukocyte marker CD45.1 (Ptprc^a) (SJL-Prprc^a/BoyAiTac).\nOn day 10, 5 days following the second administration of the indicated treatment, the animlas were sacrified and the popliteal lymph nodes that drain the site of injection were harvested to analyze developmental status and quantify the CD4+ OTII cells that had been transferred into the SJL mice by flow cytometry.", "data": [{"substance": "fOPII.323: free chicken ovalbumin peptide OVA323-339 (KISQAVHAAHAEINEAG; UniProt P01012 323-339, looked up, fragment)", "values": [{"measurement": "proportion of transferred OTII cells with regulatory T cell phenotype (CD25+Fox3p+), FIG. 1", "value": "detectable but not statisitically significant increase"}]}]}
